Data from patent US11807693B2 (priority 2014, dated 2023).
pEC50: −log10 of the molar value. Starred links: 1 amine or outer side, 2 acyl side, 3 side chain; linkers in the order of their positions; H or OH if unused. Non-standard residues stand in square brackets, D forms with d. Residues, ends and D or L forms follow the SMILES beside them. *: point of attachment. dBip = N[C@H](Cc1ccc(-c2ccccc2)cc1)C(=O)O; Oic = O=C(O)[C@@H]1C[C@@H]2CCCC[C@@H]2N1; Phe(4-Cl) = N[C@@H](Cc1ccc(Cl)cc1)C(=O)O; dPhe(4-Cl) = N[C@H](Cc1ccc(Cl)cc1)C(=O)O; Phe(4-I) = N[C@@H](Cc1ccc(I)cc1)C(=O)O; γGlu = O=C(O)[C@H](CCC(=O)[*:2])N[*:1]; 1Nal = N[C@@H](Cc1cccc2ccccc12)C(=O)O; NMeR = CN[C@@H](CCCNC(=N)N)C(=O)O; Palmitoyl = CCCCCCCCCCCCCCCC(=O)*; Tridecanoyl = CCCCCCCCCCCCC(=O)*; hArg = N=C(N)NCCCC[C@H](N)C(=O)O; Cha = N[C@@H](CC1CCCCC1)C(=O)O; NMeL = CN[C@@H](CC(C)C)C(=O)O; αMeL = CC(C)C[C@](C)(N)C(=O)O; αMeOrn = C[C@](N)(CCCN)C(=O)O; Tle = CC(C)(C)[C@H](N)C(=O)O; αMeP = C[C@@]1(C(=O)O)CCCN1; β3hP = O=C(O)C[C@@H]1CCCN1; Pip = O=C(O)[C@@H]1CCCCN1; β3hS = N[C@@H](CO)CC(=O)O; Nle = CCCC[C@H](N)C(=O)O; Deg = CCC(N)(CC)C(=O)O; AEEA = NCCOCCOCC(=O)O; Aib = CC(C)(N)C(=O)O; NPrGly = CCCNCC(=O)O; βAla = NCCC(=O)O

biological target: T1, human APJ receptor (Homo sapiens, UniProt P35414); assay: [35S] GTPγS assay, human APJ receptor; assay type: biochemical; details: Table 16
T1 construct: expressed in transfected cells
T1 sequence (P35414 1-380): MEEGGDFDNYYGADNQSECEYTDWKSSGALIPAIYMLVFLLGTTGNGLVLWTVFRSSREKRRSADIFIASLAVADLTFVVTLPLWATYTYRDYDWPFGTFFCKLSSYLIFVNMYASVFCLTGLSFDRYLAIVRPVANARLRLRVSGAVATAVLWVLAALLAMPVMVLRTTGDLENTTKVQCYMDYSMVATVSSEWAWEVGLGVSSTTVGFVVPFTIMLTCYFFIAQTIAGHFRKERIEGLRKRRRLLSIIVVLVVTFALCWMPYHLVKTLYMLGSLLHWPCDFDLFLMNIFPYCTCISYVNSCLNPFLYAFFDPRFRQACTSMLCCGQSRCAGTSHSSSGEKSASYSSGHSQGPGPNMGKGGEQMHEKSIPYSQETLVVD
Experimental: The membranes were incubated with modified peptides in the assay buffer. […] Bound [^35S] GTPγS was separated from free radiolabel by filtration. The filter bound radioactivity was determined by liquid scintillation counting.

| pEC50 | SMILES |
| --- | --- |
| < 5.38 | CCCCCCCCCCCCC(=O)N[C@@H](CCC(=O)NCCOCCOCC(=O)NCCOCCOCC(=O)N[C@H](CCC(N)=O)C(=O)N[C@@H](CCCCNC(=N)N)C(=O)N1CCC[C@H]1C(=O)N(C)[C@@H](CCCNC(=N)N)C(=O)N[C@@H](CC1CCCCC1)C(=O)N[C@@H](CO)C(=O)N[C@@H](Cc1c[nH]cn1)C(=O)N[C@@H](CCCCN)C(=O)NCCC(=O)N1[C@H](C(=O)N[C@@H](CCCC)C(=O)N2CCC[C@H]2C(=O)N[C@H](Cc2ccc(Cl)cc2)C(=O)O)C[C@@H]2CCCC[C@@H]21)C(=O)O [compound 294] ({Tridecanoyl-γGlu-AEEA-AEEA}-[dQ][hArg]P[NMeR][Cha]SHK[βAla][Oic][Nle]P[dPhe(4-Cl)]-OH) |
| 8.83 | CCCCCCCCCCCCC(=O)N[C@@H](CCC(=O)NCCOCCOCC(=O)NCCOCCOCC(=O)N[C@@H](CCC(N)=O)C(=O)N[C@@H](CCCNC(=N)N)C(=O)N1CCC[C@H]1C(=O)N(C)[C@@H](CCCNC(=N)N)C(=O)N[C@@H](CC1CCCCC1)C(=O)N[C@@H](CO)C(=O)N[C@H](C(=O)N[C@@H](CCCCN)C(=O)NCC(=O)N1[C@H](C(=O)N[C@@H](CCCC)C(=O)N2CCC[C@H]2C(=O)N[C@@H](Cc2ccc(Cl)cc2)C(=O)O)C[C@@H]2CCCC[C@@H]21)C(C)(C)C)C(=O)O [compound 438] ({Tridecanoyl-γGlu-AEEA-AEEA}-QRP[NMeR][Cha]S[Tle]KG[Oic][Nle]P[Phe(4-Cl)]-OH) |
| 9.95 | CCCCCCCCCCCCC(=O)N[C@@H](CCC(=O)NCCOCCOCC(=O)NCCOCCOCC(=O)N[C@H](CCC(N)=O)C(=O)N[C@@H](CCCNC(=N)N)C(=O)N1CCC[C@H]1C(=O)N(C)[C@@H](CCCNC(=N)N)C(=O)N[C@@](C)(CC(C)C)C(=O)N[C@@H](CO)CC(=O)N[C@@H](Cc1c[nH]cn1)C(=O)N[C@@H](CCCCN)C(=O)NCC(=O)N1[C@H](C(=O)N[C@@H](CCCC)C(=O)N2CCC[C@@]2(C)C(=O)N[C@@H](Cc2ccc(Cl)cc2)C(=O)O)C[C@@H]2CCCC[C@@H]21)C(=O)O [compound 518] ({Tridecanoyl-γGlu-AEEA-AEEA}-[dQ]RP[NMeR][αMeL][β3hS]HKG[Oic][Nle][αMeP][Phe(4-Cl)]-OH) |
| 9.31 | CCCCCCCCCCCCC(=O)N[C@@H](CCC(=O)NCCOCCOCC(=O)NCCOCCOCC(=O)N[C@@H](CCC(N)=O)C(=O)N[C@@H](CCCNC(=N)N)C(=O)N1CCC[C@H]1C(=O)N(C)[C@@H](CCCNC(=N)N)C(=O)N[C@@H](CC1CCCCC1)C(=O)N[C@@H](CO)C(=O)N[C@@H](C)C(=O)N[C@@H](CCCCN)C(=O)NCC(=O)N1[C@H](C(=O)N[C@@H](CCCC)C(=O)N2CCC[C@H]2C(=O)N[C@@H](Cc2ccc(Cl)cc2)C(=O)O)C[C@@H]2CCCC[C@@H]21)C(=O)O [compound 419] ({Tridecanoyl-γGlu-AEEA-AEEA}-QRP[NMeR][Cha]SAKG[Oic][Nle]P[Phe(4-Cl)]-OH) |
| 8.92 | CCCCCCCCCCCCC(=O)N[C@@H](CCC(=O)NCCOCCOCC(=O)NCCOCCOCC(=O)N[C@H](CCC(N)=O)C(=O)N[C@@H](CCCNC(=N)N)C(=O)N1CCC[C@H]1C(=O)N(C)[C@@H](CCCNC(=N)N)C(=O)N[C@@H](CC1CCCCC1)C(=O)N[C@@H](CO)C(=O)N[C@@H](Cc1c[nH]cn1)C(=O)N[C@@H](CCCCN)C(=O)NCC(=O)N1[C@H](C(=O)N[C@@H](CCCC)C(=O)NC(CC)(CC)C(=O)N[C@@H](Cc2ccc(Cl)cc2)C(=O)O)C[C@@H]2CCCC[C@@H]21)C(=O)O [compound 549] ({Tridecanoyl-γGlu-AEEA-AEEA}-[dQ]RP[NMeR][Cha]SHKG[Oic][Nle][Deg][Phe(4-Cl)]-OH) |
| 7.58 | CCCCCCCCCCCCC(=O)N[C@@H](CCC(=O)NCCOCCOCC(=O)NCCOCCOCC(=O)N[C@H](CCC(N)=O)C(=O)N[C@@H](CCCCNC(=N)N)C(=O)N1CCC[C@H]1C(=O)N[C@H](CCCNC(=N)N)C(=O)N[C@@H](CC1CCCCC1)C(=O)N[C@@H](CO)C(=O)N[C@@H](Cc1c[nH]cn1)C(=O)N[C@@H](CCCCN)C(=O)NCC(=O)N1[C@H](C(=O)N[C@@H](CCCC)C(=O)N2CCC[C@H]2C(=O)N[C@@H](Cc2cccc3ccccc23)C(=O)O)C[C@@H]2CCCC[C@@H]21)C(=O)O [compound 367] ({Tridecanoyl-γGlu-AEEA-AEEA}-[dQ][hArg]P[dR][Cha]SHKG[Oic][Nle]P[1Nal]-OH) |
| 9.00 | CCCCCCCCCCCCC(=O)N[C@@H](CCC(=O)NCCOCCOCC(=O)NCCOCCOCC(=O)N[C@@H](CCC(N)=O)C(=O)N[C@@H](CCCNC(=N)N)C(=O)N1CCC[C@H]1C(=O)N(C)[C@@H](CCCNC(=N)N)C(=O)N[C@@H](CC1CCCCC1)C(=O)N[C@@H](CO)C(=O)N[C@@H](Cc1c[nH]cn1)C(=O)N[C@@H](CCCCN)C(=O)NCC(=O)N1[C@H](C(=O)N[C@@H](CCCC)C(=O)N[C@@H](Cc2ccc(Cl)cc2)C(=O)O)C[C@@H]2CCCC[C@@H]21)C(=O)O [compound 409] ({Tridecanoyl-γGlu-AEEA-AEEA}-QRP[NMeR][Cha]SHKG[Oic][Nle][Phe(4-Cl)]-OH) |
| 8.46 | CCCCCCCCCCCCC(=O)N[C@@H](CCC(=O)NCCOCCOCC(=O)NCCOCCOCC(=O)N[C@@H](CCC(N)=O)C(=O)N[C@@H](CCCNC(=N)N)C(=O)N1CCCC[C@H]1C(=O)N(C)[C@@H](CCCNC(=N)N)C(=O)N[C@@H](CC1CCCCC1)C(=O)N[C@@H](CO)C(=O)N[C@@H](Cc1c[nH]cn1)C(=O)N[C@@H](CCCCN)C(=O)NCC(=O)N1[C@H](C(=O)N[C@@H](CCCC)C(=O)N2CCC[C@H]2C(=O)N[C@@H](Cc2ccc(Cl)cc2)C(=O)O)C[C@@H]2CCCC[C@@H]21)C(=O)O [compound 440] ({Tridecanoyl-γGlu-AEEA-AEEA}-QR[Pip][NMeR][Cha]SHKG[Oic][Nle]P[Phe(4-Cl)]-OH) |

same assay, conditions: human APJ receptor

| pEC50 | SMILES |
| --- | --- |
| 8.85 | CCCCCCCCCCCCCCCC(=O)N[C@@H](CCC(=O)NCCOCCOCC(=O)NCCOCCOCC(=O)N[C@H](CCC(N)=O)C(=O)N[C@@H](CCCNC(=N)N)C(=O)N1CCC[C@H]1C(=O)N(C)[C@@H](CCCNC(=N)N)C(=O)N[C@@H](CC1CCCCC1)C(=O)N[C@@H](CO)C(=O)N(CCC)CC(=O)N[C@@H](CCCCN)C(=O)NCC(=O)N1CCCC[C@H]1C(=O)N[C@@H](CCCC)C(=O)NC(C)(C)C(=O)N[C@@H](Cc1ccc(Cl)cc1)C(=O)O)C(=O)O [compound 644] ({Palmitoyl-γGlu-AEEA-AEEA}-[dQ]RP[NMeR][Cha]S[NPrGly]KG[Pip][Nle][Aib][Phe(4-Cl)]-OH) |
| 8.85 | CCCCCCCCCCCCCCCC(=O)N[C@@H](CCC(=O)NCCOCCOCC(=O)NCCOCCOCC(=O)N[C@H](CCC(N)=O)C(=O)N[C@@H](CCCNC(=N)N)C(=O)N1CCC[C@H]1C(=O)N(C)[C@@H](CCCNC(=N)N)C(=O)N[C@@H](CC1CCCCC1)C(=O)N[C@@H](CO)C(=O)N[C@@H](Cc1c[nH]cn1)C(=O)N[C@@H](CCCCN)C(=O)NCC(=O)N1CCCC[C@H]1C(=O)NC(C)(C)C(=O)N[C@@H](Cc1ccc(Cl)cc1)C(=O)O)C(=O)O [compound 581] ({Palmitoyl-γGlu-AEEA-AEEA}-[dQ]RP[NMeR][Cha]SHKG[Pip][Aib][Phe(4-Cl)]-OH) |
| 10.28 | CCCCCCCCCCCCC(=O)N[C@@H](CCC(=O)NCCOCCOCC(=O)NCCOCCOCC(=O)N[C@@H](CC(N)=O)CC(=O)N[C@@H](CCCNC(=N)N)C(=O)N1CCC[C@H]1C(=O)N(C)[C@@H](CCCNC(=N)N)C(=O)N[C@@H](CC(C)C)C(=O)N[C@@H](CO)C(=O)N[C@@H](Cc1c[nH]cn1)C(=O)N[C@@H](CCCCN)C(=O)NCC(=O)N1CCC[C@H]1C(=O)N[C@@H](CCCC)C(=O)N1CCC[C@H]1C(=O)N[C@@H](Cc1ccc(Cl)cc1)C(=O)O)C(=O)O [compound 420] |
| 8.79 | CCCCCCCCCCCCCCCC(=O)N[C@@H](CCC(=O)NCCOCCOCC(=O)NCCOCCOCC(=O)N[C@H](CCC(N)=O)C(=O)N[C@@H](CCCNC(=N)N)C(=O)N1CCC[C@H]1C(=O)N(C)[C@@H](CCCNC(=N)N)C(=O)N[C@@](C)(CC(C)C)C(=O)N[C@@H](CO)C(=O)N[C@@H](Cc1c[nH]cn1)C(=O)N[C@@](C)(CCCN)C(=O)NCC(=O)N1[C@H](C(=O)N[C@@H](CCCC)C(=O)N2CCC[C@H]2CC(=O)N[C@@H](Cc2ccc(Cl)cc2)C(=O)O)C[C@@H]2CCCC[C@@H]21)C(=O)O [compound 635] ({Palmitoyl-γGlu-AEEA-AEEA}-[dQ]RP[NMeR][αMeL]SH[αMeOrn]G[Oic][Nle][β3hP][Phe(4-Cl)]-OH) |
| 9.64 | CCCC[C@H](NC(=O)[C@]1(C)CCCN1C(=O)CNC(=O)[C@H](CCCCN)NC(=O)[C@H](Cc1c[nH]cn1)NC(=O)[C@H](CO)NC(=O)[C@H](CC1CCCCC1)NC(=O)[C@H](CCCNC(=N)N)N(C)C(=O)[C@@H]1CCCN1C(=O)[C@H](CCCNC(=N)N)NC(=O)[C@@H](CCC(N)=O)NC(C)=O)C(=O)NC(C)(C)C(=O)N[C@@H](Cc1ccc(Cl)cc1)C(=O)O [compound 93] (Ac-[dQ]RP[NMeR][Cha]SHKG[αMeP][Nle][Aib][Phe(4-Cl)]-OH) |
| 7.75 | CCCCCCCCCCCCC(=O)N[C@@H](CCC(=O)NCCOCCOCC(=O)NCCOCCOCC(=O)N[C@@H](CCCCNC(=N)N)C(=O)N[C@@H](CCCC)C(=O)N[C@@H](CCC(N)=O)C(=O)N[C@@H](CCCCNC(=N)N)C(=O)N1CCC[C@H]1C(=O)N[C@H](CCCNC(=N)N)C(=O)N(C)[C@@H](CC(C)C)C(=O)N[C@@H](C)C(=O)N[C@@H](Cc1c[nH]cn1)C(=O)N[C@@H](CCCCN)C(=O)NCC(=O)N1[C@H](C(=O)N[C@@H](Cc2ccc(I)cc2)C(=O)N2CCC[C@H]2C(=O)N[C@H](Cc2ccc(-c3ccccc3)cc2)C(=O)O)C[C@@H]2CCCC[C@@H]21)C(=O)O [compound 321] ({Tridecanoyl-γGlu-AEEA-AEEA}-[hArg][Nle]Q[hArg]P[dR][NMeL]AHKG[Oic][Phe(4-I)]P[dBip]-OH) |
